Marks after values point to notes of the source that are not given here.

In test [1] the test system is vitiligo guinea pig model caused by hydroquinone depigmentation. In words: Vitiligo guinea pig model caused by hydroquinone depigmentation: counts of epidermal MC and melanin-granule-containing basal cells. It counts as in vivo. The note with it: guinea pig skin after hydroquinone decolorization, drug once a day for 30 days, n = 10, x ± s; for Epidermal melanocyte count: average number of MCs in each 100 epidermal basal cells; for Basal cells containing melanin granules count: average number per 100 epidermal basal cells. The method, then:
(§1) 10 in each group, Half male and female. Except for the blank control group, the other groups were smeared with 5% hydroquinone in the hair removal area for decolorization, 0.5 mL each time, twice a day, and the animals in the blank control group were smeared with an equal amount of normal saline every day. […] After modeling, the drug was administered in the above manner, once a day for 30 days.
After the observation, the mice were sacrificed, and the skin tissue on the back about 3 cm×3 cm was cut for histopathological examination.
The excised mouse skin tissue was fixed in 10% formalin for 1 hour, washed with running water for 3-4 min, and placed into a phosphate buffer solution (pH 7.4) containing 0.1% dihydroxyphenylalanine, and let stand at 37° C. for 1 hour. Then it was replaced with fresh Dopa reagent and left at 37° C. for 12 hours, rinsed with running water, and fixed with Bouin's solution continuously for 24 h. After the specimens were taken out, it was rinsed with running water for 4 hours, dehydrated, cleared in xylene, embedded in paraffin, deparaffinized to water, and stained with hematoxylin-eosin for contrast. Dehydrated and routinely mounted. After Dopa-oxidase staining, brownish-black staining was MC positive.
The excised mouse skin tissue was fixed in 10% formalin, dehydrated, cleared with xylene, embedded in paraffin, sectioned, deparaffinized to water, washed with distilled water several times, then stained with Lillie reagent, soaked with ferric chloride and potassium ferricyanide mixed solution for 15-20 minutes, then differentiated with 1% acetic acid aqueous solution for several minutes, washed with distilled water several times, then quickly dehydrated with 95% ethanol and absolute ethanol, cleared in xylene, and sealed with neutral gum. If melanin was dark green after Lillie reagent staining, it was positive.

A further test concerns rabbit ear acne model. In words: Rabbit ear acne model induced by 2% coal tar. It counts as in vivo, New Zealand rabbits. The following applies: n = 10; for Skin thickness: rabbit ear epidermis; for Hair follicle area / Sebaceous gland diameter: rabbit ear; for Histological grading of acne: number of animals graded − / Histological grading of acne: number of animals graded 1+ / Histological grading of acne: number of animals graded 2+ / Histological grading of acne: number of animals graded 3+: right ear; for Histological grading of acne: number of animals graded −: grade 0: only loose keratinized cells in the infundibulum, without acne; for Histological grading of acne: number of animals graded 1+: grade 1: small amount of dense keratinized material, infundibulum not expanded; for Histological grading of acne: number of animals graded 2+: grade 2: moderately dense keratinized material extending to sebaceous glands, infundibulum expands; for Histological grading of acne: number of animals graded 3+: grade 3: extensive keratinized material, severe expansion of hair follicles. An excerpt:
The inner side of the right ear of the rabbits was taken as the observation area, the left ear of all rabbits was used as the self-negative control, and 95% alcohol was applied. The inner side of the right ear of the model group and the treatment group were smeared with 2% coal tar (Alfa Aesar China Company, 2% coal tar solution made with 95% alcohol), and evenly applied to the opening of the ear canal on the inner side of the rabbit ear with a sterile cotton swab in a range of about 2 cm×2 cm, once a day, 0.5 mL each time. Then the previous application was wiped with warm water. […] 18 hours after the last coating, the samples were sacrificed, fixed in 10% formaldehyde, embedded in paraffin, and stained with HE for histopathological analysis.
Histological grading standard of the acne model: […], according to histology. Grade 0 means that there are only loose keratinized cells in the infundibulum, without acne forming the “1”; grade 1: the skin on the surface of the rabbit ear is red, or a small amount of dense keratinized material is seen in the infundibulum of the hair follicle, and the infundibulum is not expanded “+”; grade 2: moderately dense keratinized material is seen in the infundibulum of the hair follicle, and it extends to the sebaceous glands, with the proliferation of sebaceous gland ducts, the infundibulum expands by “2+”; grade 3: extensive keratinized material in the hair follicle. Tight keratin embolism in hair follicles causes severe expansion of hair follicles, obvious hyperplasia of sebaceous duct epithelium, skin bulges and scars, and some sebaceous glands degenerate into “3+”.
Histopathological changes were observed under a microscope, and the thickness of 5 different epidermises on a slice was measured with the Biomias99 image analysis system, and the average value was calculated; the area of two hair follicles with the same position and the most complete structure and the diameter of four sebaceous glands were detected, and the average value of each was calculated, and then the data of the left and right external auditory canals of each group were subtracted to obtain the difference in the thickness of the epidermis, the difference in hair follicle area and the diameter of the sebaceous gland in the left and right ears of each rabbit.

In a further test the test system is tyrosinase. The experiment in a line: Tyrosinase intensity in skin tissue of vitiligo guinea pig model (immunohistochemistry, two-level scoring). It counts as in vivo. The note with it: n = 10; for Color (units): score in brackets for staining colour; for Number of positive cells (units): score in brackets for tyrosinase-positive cells; for Total number (units): sum of positive-cell and colour scores; for Color: tyrosinase staining colour; for Number of positive cells: tyrosinase-positive cells. The method, then:
as §1
The excised mouse skin tissue was fixed in 10% formalin dehydrated, cleared in xylene, embedded in paraffin, sectioned, deparaffinized to water, then 50 μL of peroxidase blocking agent (3% H2O2) was added to each section for 10 min to block endogenous peroxidase activity. The sections were immersed in 0.01 mol·L-1PBS buffer and microwaved for 10 min, added with 50 μL mouse anti-human tyrosinase monoclonal antibody, left at 37° C. for 60 min, then added with 50 μL of Elivision reagent, left at 37° C. for 30 min. The sections were then placed in freshly prepared DAB-H2O2 chromogenic solution for color development, rinsed with distilled water, stained with hematoxylin for contrast for 1 min, and sealed with neutral gum. The tyrosinase-positive product was located in the cytoplasm of the cell, shown as yellow or brownish-yellow granules or clumps in the cells under the microscope. The two-level scoring method was used to determine the results. If the number of positive cells was less than 5%, the score was 0; 5%˜25% is 1 point; 2 points for 25%˜50%; 3 points for 50%˜75%; >75% is 4 points. When classified according to staining intensity: 1 point for light yellow; 2 points for yellow or dark yellow; 3 points for brown or brownish yellow. If the sum of the two was less than 2, it was negative (−); 2-3 points as positive (+); 4-5 points as moderately positive (2+); 6-7 points as strongly positive (3+).

Consider `COc1ccc(CCC(=O)N(c2nccc3ccccc23)[C@@H]2CCCNC2)cc1` [Compound group 1, R-IMPP], for which, in test [1], the Epidermal melanocyte count is listed as 33.6 ± 2.9 and the “Basal cells containing melanin granules count” value turned out to be 36.5 ± 3.8. For the same compound, in the test on rabbit ear acne model, the Skin thickness was 0.2433 ± 0.0196 mm, the Hair follicle area is on record as 0.2726 ± 0.0842* mm^2, the Sebaceous gland diameter was 0.0512 ± 0.0327 mm and the “Histological grading of acne: number of animals graded −” value turned out to be 6. Moreover, in the test on rabbit ear acne model, the “Histological grading of acne: number of animals graded 1+” value worked out at 3, the “Histological grading of acne: number of animals graded 2+” value was 1 and the “Histological grading of acne: number of animals graded 3+” value is reported as 0. In the test on tyrosinase, the “Color (units)” value is reported as 2 units, the “Number of positive cells (units)” value is on record as 3 units, the “Total number (units)” value stood at 5 units and the Color entry is “Brownish-yellow”. Also, the “Number of positive cells” value in the test with tyrosinase was 30%.
Regarding `O=C(c1ccc(-n2nnc3cccnc32)cc1)N(c1ncccc1Cl)[C@@H]1CCCNC1` [Compound group 2, PF 06446846], in test [1], the Epidermal melanocyte count is reported as 39.3 ± 3.2 and the “Basal cells containing melanin granules count” value is on record as 38.8 ± 3.9. Besides, in the test on rabbit ear acne model, the Skin thickness is reported as 0.1968 ± 0.0121 mm, the Hair follicle area is on record as 0.2353 ± 0.0812* mm^2, the Sebaceous gland diameter is 0.0467 ± 0.0313 mm and the “Histological grading of acne: number of animals graded −” value is listed as 7. Besides, in the test on rabbit ear acne model, the “Histological grading of acne: number of animals graded 1+” value worked out at 2, the “Histological grading of acne: number of animals graded 2+” value was 1 and the “Histological grading of acne: number of animals graded 3+” value is reported as 0. In the test with tyrosinase, the “Color (units)” value is 3 units, the “Number of positive cells (units)” value is listed as 4 units, the “Total number (units)” value came to 7 units and the Color entry is “Brownish-yellow”. Moreover, in the test on tyrosinase, the “Number of positive cells” value amounted to 40%.
For `Cc1cc(C(=O)C2=C(O)C(=O)N(CCCN3CCOCC3)C2c2ccncc2)ccc1OCc1ccccc1` (centres unmarked) [Compound group 3, SBC-115076], in test [1], the Epidermal melanocyte count is 36.1 ± 2.8 and the “Basal cells containing melanin granules count” value is 36.9 ± 3.6. In the test on rabbit ear acne model, the Skin thickness was 0.2245 ± 0.0185 mm, the Hair follicle area is reported as 0.2836 ± 0.0851* mm^2, the Sebaceous gland diameter came to 0.0542 ± 0.0346 mm and the “Histological grading of acne: number of animals graded −” value amounted to 5. Also, in the test on rabbit ear acne model, the “Histological grading of acne: number of animals graded 1+” value came out at 3, the “Histological grading of acne: number of animals graded 2+” value is given as 2 and the “Histological grading of acne: number of animals graded 3+” value was found to be 0. Also, in the test on tyrosinase, the “Color (units)” value turned out to be 3 units, the “Number of positive cells (units)” value is 3 units, the “Total number (units)” value was found to be 6 units and the Color entry is reported as “Brownish-yellow”. The “Number of positive cells” value in the test with tyrosinase is 30%.
Take `CC(=O)Nc1ccc(C(=O)N2CCN(c3ccc(C)cc3)CC2c2ccccc2)cc1` (centres unmarked) [Compound group 4, SBC-110736]: in test [1], the Epidermal melanocyte count was found to be 34.6 ± 2.6 and the “Basal cells containing melanin granules count” value is recorded as 36.8 ± 3.7. Besides, in the test on rabbit ear acne model, the Skin thickness was found to be 0.2276 ± 0.0193 mm, the Hair follicle area is reported as 0.2853 ± 0.0879* mm^2, the Sebaceous gland diameter worked out at 0.0561 ± 0.0362 mm and the “Histological grading of acne: number of animals graded −” value came out at 5. In the test with rabbit ear acne model, the “Histological grading of acne: number of animals graded 1+” value stood at 2, the “Histological grading of acne: number of animals graded 2+” value came out at 3 and the “Histological grading of acne: number of animals graded 3+” value is 0. In the test on tyrosinase, the “Color (units)” value is on record as 3 units, the “Number of positive cells (units)” value came out at 3 units, the “Total number (units)” value is on record as 6 units and the Color result is listed as “Brownish-yellow”. In the test on tyrosinase, the “Number of positive cells” value stood at 30%.
Consider ALN-PCS [RNA interference group 3], for which, in test [1], the Epidermal melanocyte count amounted to 33.8 ± 2.7 and the “Basal cells containing melanin granules count” value is given as 35.3 ± 3.1. In the test on rabbit ear acne model, the Skin thickness is given as 0.1987 ± 0.0185 mm, the Hair follicle area was 0.1921 ± 0.0933* mm^2, the Sebaceous gland diameter was 0.0615 ± 0.0476 mm and the “Histological grading of acne: number of animals graded −” value amounted to 5. In the test with rabbit ear acne model, the “Histological grading of acne: number of animals graded 1+” value amounted to 4, the “Histological grading of acne: number of animals graded 2+” value stood at 1 and the “Histological grading of acne: number of animals graded 3+” value came to 0. In the test on tyrosinase, the “Color (units)” value was determined as 2 units, the “Number of positive cells (units)” value came out at 3 units, the “Total number (units)” value is 5 units and the Color entry was “Yellow”. The “Number of positive cells” value with tyrosinase is given as 30%.
Turning to “Alirocumab [Monoclonal antibody group 3]”, in test [1], the Epidermal melanocyte count stood at 43.5 ± 3.6 and the “Basal cells containing melanin granules count” value was determined as 39.6 ± 3.7. In the test with rabbit ear acne model, the Skin thickness turned out to be 0.1547 ± 0.0149 mm, the Hair follicle area is given as 0.1526 ± 0.0723* mm^2, the Sebaceous gland diameter came to 0.0435 ± 0.0285 mm and the “Histological grading of acne: number of animals graded −” value was found to be 9. Besides, in the test on rabbit ear acne model, the “Histological grading of acne: number of animals graded 1+” value amounted to 1, the “Histological grading of acne: number of animals graded 2+” value is recorded as 0 and the “Histological grading of acne: number of animals graded 3+” value is given as 0. Besides, in the test on tyrosinase, the “Color (units)” value is on record as 4 units, the “Number of positive cells (units)” value is listed as 3 units, the “Total number (units)” value amounted to 7 units and the Color entry is “Brownish-yellow”. Also, in the test on tyrosinase, the “Number of positive cells” value was found to be 30%.
As for Inclisran [RNA interference group 2], in test [1], the Epidermal melanocyte count was 32.6 ± 2.8 and the “Basal cells containing melanin granules count” value was 36.1 ± 3.2. Besides, in the test with rabbit ear acne model, the Skin thickness amounted to 0.1856 ± 0.0179 mm, the Hair follicle area is on record as 0.1836 ± 0.0856* mm^2, the Sebaceous gland diameter was 0.0561 ± 0.0423 mm and the “Histological grading of acne: number of animals graded −” value was determined as 6. In the test on rabbit ear acne model, the “Histological grading of acne: number of animals graded 1+” value is recorded as 3, the “Histological grading of acne: number of animals graded 2+” value is given as 1 and the “Histological grading of acne: number of animals graded 3+” value stood at 0. In the test with tyrosinase, the “Color (units)” value turned out to be 2 units, the “Number of positive cells (units)” value came out at 3 units, the “Total number (units)” value amounted to 5 units and the Color result was “Yellow”. Also, the “Number of positive cells” value in the test on tyrosinase is given as 30%.

The values above are taken from US20230346773A1, “USE OF PCSK9 INHIBITOR IN PREPARATION OF PRODUCT FOR TREATING MULTIPLE DISEASES” (priority 2020, published 2023).
